Test results published in paper PMC9986306, “Beyond CBD: Inhibitory effects of lesser studied phytocannabinoids on human voltage-gated sodium channels” (Frontiers in Physiology, 2023).
Marks after values point to notes of the source that are not given here.

What was measured:
[1] = test system: Scn1a+/− mouse model of DS; parameters: method as in Anderson et al., 2021a; Anderson et al., 2021b; settings: Scn1a+/− mice, ref Anderson et al., 2021a, 2021b; cited from earlier work
[2] = target: T1, human NaV1.2 channel (SCN2A, HEK293T cells) (Homo sapiens, UniProt Q99250); assay: Planar patch-clamp, biophysical properties (activation, SSFI, recovery from SSFI); format: cell-based; settings: change vs vehicle DMSO at IC50 concentration (CBD 18.4 μM, CBGA 14.7 μM, CBDVA 60 μM)
T1 construct: expressed in transfected cells
T1 sequence (Q99250 whole entry): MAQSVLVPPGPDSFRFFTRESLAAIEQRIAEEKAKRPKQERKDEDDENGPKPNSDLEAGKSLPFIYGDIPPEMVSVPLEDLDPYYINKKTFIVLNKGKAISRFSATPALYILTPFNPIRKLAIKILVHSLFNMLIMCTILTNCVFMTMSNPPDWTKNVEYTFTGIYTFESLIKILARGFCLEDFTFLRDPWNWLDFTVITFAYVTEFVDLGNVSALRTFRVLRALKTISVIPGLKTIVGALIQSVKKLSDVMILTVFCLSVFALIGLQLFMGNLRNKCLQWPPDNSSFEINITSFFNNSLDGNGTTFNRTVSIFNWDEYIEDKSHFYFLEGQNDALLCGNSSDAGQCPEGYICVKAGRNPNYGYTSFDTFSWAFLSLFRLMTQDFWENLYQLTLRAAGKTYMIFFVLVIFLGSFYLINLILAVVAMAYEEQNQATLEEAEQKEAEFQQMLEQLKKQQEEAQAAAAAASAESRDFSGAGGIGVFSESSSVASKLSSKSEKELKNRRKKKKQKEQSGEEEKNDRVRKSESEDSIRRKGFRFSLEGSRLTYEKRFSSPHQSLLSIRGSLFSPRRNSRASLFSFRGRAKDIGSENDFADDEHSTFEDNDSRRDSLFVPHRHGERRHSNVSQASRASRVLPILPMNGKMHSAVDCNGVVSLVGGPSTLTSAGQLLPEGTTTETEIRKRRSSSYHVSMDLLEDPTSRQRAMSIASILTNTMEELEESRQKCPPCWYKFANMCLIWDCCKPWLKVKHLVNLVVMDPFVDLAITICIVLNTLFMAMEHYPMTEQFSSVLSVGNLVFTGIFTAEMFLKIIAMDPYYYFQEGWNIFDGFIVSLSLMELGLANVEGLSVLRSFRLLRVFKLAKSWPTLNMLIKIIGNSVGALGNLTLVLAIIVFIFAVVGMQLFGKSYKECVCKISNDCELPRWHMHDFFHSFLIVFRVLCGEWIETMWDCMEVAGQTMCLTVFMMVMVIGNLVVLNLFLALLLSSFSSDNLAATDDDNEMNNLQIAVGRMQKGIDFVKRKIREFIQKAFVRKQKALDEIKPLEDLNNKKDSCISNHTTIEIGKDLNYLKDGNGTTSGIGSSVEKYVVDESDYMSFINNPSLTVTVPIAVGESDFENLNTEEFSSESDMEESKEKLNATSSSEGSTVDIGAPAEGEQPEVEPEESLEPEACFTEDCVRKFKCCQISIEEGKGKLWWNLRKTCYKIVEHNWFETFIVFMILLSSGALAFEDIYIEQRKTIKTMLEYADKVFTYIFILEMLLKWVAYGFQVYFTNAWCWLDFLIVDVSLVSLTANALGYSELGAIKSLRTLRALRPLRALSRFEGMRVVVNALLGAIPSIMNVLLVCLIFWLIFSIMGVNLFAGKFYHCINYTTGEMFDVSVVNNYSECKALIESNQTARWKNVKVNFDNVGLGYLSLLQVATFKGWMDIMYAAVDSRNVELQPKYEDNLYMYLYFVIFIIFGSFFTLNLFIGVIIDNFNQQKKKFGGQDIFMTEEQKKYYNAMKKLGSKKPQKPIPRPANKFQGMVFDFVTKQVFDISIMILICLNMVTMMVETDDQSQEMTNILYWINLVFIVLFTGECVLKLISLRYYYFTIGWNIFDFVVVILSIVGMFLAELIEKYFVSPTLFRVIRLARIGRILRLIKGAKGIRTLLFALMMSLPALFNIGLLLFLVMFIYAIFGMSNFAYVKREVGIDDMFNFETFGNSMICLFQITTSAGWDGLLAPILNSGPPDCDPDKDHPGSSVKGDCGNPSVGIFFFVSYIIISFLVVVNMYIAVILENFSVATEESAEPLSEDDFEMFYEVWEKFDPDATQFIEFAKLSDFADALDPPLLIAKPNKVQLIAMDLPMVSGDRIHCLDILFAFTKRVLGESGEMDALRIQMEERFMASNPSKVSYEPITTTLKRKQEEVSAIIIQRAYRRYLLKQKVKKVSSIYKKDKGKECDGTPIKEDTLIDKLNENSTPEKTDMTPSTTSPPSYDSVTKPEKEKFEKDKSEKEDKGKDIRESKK

[3] = test system: Scn1a+/− mouse model of DS; parameters: method as in Anderson et al., 2021b; settings: monotherapy, ref Anderson et al., 2021b; cited from earlier work
[4] = test system: NaV1.1, NaV1.2, NaV1.6 and NaV1.7 channels; assay: Planar patch-clamp, IC50 values summarised across the four isoforms; format: cell-based, human; settings: range over NaV1.1, NaV1.2, NaV1.6, NaV1.7; read-out: IC50 values determined here (range over isoforms)
Method: HEK293T cells stably expressing SCN1A or SCN2A and CHO cells stably expressing SCN8A or SCN9A were maintained as previously described ([Richards et al., 2018]; [Milligan et al., 2022]).
Patch-clamp recordings were made using a Patchliner® (Nanion Technologies, Munich, Germany) in the whole-cell configuration as previously described ([Richards et al., 2018]; [Milligan et al., 2022]). Briefly, cells were prepared in suspension at a density of 1 × 10^6-5 × 10^7 cells/mL. The external recording solution comprised (in mM): 140 NaCl, 4 KCl, 1 MgCl2, 2 CaCl2, 5 D-glucose, 10 HEPES, pH 7.4 with NaOH, ∼295 mOsm. The internal recording solution comprised (in mM): 50 CsCl, 60 CsF, 10 NaCl, 20 EGTA, 10 HEPES, pH 7.2 with CsOH, ∼285 mOsm. Medium single-hole planar NPC-16 chips with an average resistance of ∼2.5 MΩ were used. Chip and whole-cell capacitance were fully compensated, and 50% series resistance compensation applied. Recordings were acquired at 50 kHz with the low pass filter set to 10 kHz in PATCHMASTER (HEKA Instruments, NY, United States) and performed at 27°C. Offline analysis was performed using Microsoft Excel, MatLab R2019a (MathWorks) and GraphPad Prism 8 (Molecular Devices). […]

CCCCCc1cc(O)c(C/C=C(\C)CCC=C(C)C)c(O)c1C(=O)O [CBGA, cannabigerolic acid]
Effect against hyperthermia-induced seizures [1]: anti-convulsant properties
Inactivation △ V0.5 inact ([2]; SSFI): −3.0 ± 1.5 mV
Inactivation △ slope factor ([2]; SSFI): 2.5 ± 0.8**
Activation △ Slope factor [2]: 1.9 ± 1.0
Activation △ V0.5 act [2]: 1.8 ± 2.3 mV
Inactivation △ τinact SSFI at 5 mV [2]: 0.08 ± 0.1
Effect on spontaneous seizures [3]: proconvulsive effects
IC50 [4]: 12 to 16.4 µM
